Tests used:
human FPR2 = target: T1, human FPR2 (Homo sapiens, UniProt P25090); experiment: FPR2 cyclic adenosine monophosphate (cAMP) assay; assay type: cell-based; details: CHO cells overexpressing human FPR2; forskolin 5 μM; inhibition of cAMP production; HTRF; read-out: hFPR2 cAMP2 EC50
T1 sequence (P25090 1-351): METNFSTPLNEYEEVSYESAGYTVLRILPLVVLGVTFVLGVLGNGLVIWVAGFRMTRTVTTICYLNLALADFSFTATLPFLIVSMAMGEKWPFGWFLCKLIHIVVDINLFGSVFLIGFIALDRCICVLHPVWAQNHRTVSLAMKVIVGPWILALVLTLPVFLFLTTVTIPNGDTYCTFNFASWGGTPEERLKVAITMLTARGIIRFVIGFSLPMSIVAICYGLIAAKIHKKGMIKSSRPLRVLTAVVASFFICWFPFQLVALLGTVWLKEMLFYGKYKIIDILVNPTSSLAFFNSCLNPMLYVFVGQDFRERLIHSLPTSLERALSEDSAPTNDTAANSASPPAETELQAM
In short: (§1)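 CHO cells overexpressing human FPR1 (4,000/well) or FPR2 (2,000/well) were incubated 30 min at room temperature with compound (0.020 nM to 100 μM, 1% DMSO), IBMX 200 μM, and forskolin at 10 μM (FPR1) or 5 μM (FPR2), all final. HTRF cAMP read-out; inhibition fitted by 4-parameter logistic equation.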

human FPR1 = target: T2, human FPR1 (Homo sapiens, UniProt P21462); experiment: FPR1 cyclic adenosine monophosphate (cAMP) assay; assay type: cell-based; details: CHO cells overexpressing human FPR1; forskolin 10 μM; inhibition of cAMP production; HTRF; read-out: hFPR1 cAMP2 EC50
T2 sequence (P21462 1-350): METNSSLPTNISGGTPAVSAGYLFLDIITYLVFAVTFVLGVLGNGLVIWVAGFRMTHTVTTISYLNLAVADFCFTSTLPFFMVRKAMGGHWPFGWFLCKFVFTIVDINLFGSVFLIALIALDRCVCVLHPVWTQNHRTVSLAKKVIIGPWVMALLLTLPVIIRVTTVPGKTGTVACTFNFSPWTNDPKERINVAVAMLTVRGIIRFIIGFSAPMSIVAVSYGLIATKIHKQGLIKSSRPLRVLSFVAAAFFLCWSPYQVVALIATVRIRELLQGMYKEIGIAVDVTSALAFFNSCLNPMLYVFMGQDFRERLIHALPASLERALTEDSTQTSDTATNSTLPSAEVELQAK
In short: as §1

EC50 (human FPR2) [nM] | EC50 (human FPR1) [nM] | Compound
15 | > 10000 | COc1cc(F)c(-c2c(NC(=O)c3ccc(OC(F)F)cc3)c(=O)n(-c3ncccc3Br)n2C)c(F)c1 [Example 165, N-[2-(3-bromopyridin-2-yl)-5-(2,6-difluoro-4-methoxyphenyl)-1-methyl-3-oxo-2,3-dihydro-1H-pyrazol-4-yl]-4-(difluoromethoxy)benzamide]
24 | 2200 | COc1cncc(-n2c(=O)c(NC(=O)c3ccc(OC(F)F)cc3)c(-c3c(F)cc(OC)cc3F)n2C)c1 [Example 129, N-[5-(2,6-difluoro-4-methoxyphenyl)-2-(5-methoxypyridin-3-yl)-1-methyl-3-oxo-2,3-dihydro-1H-pyrazol-4-yl]-4-(difluoromethoxy)benzamide]
8 | > 10000 | COc1cc(F)c(-c2c(NC(=O)c3ccc(OC(F)F)cc3)c(=O)n(-c3cc(Cl)cc(Cl)c3)n2C)c(F)c1 [Example 127, N-[2-(3,5-dichlorophenyl)-5-(2,6-difluoro-4-methoxyphenyl)-1-methyl-3-oxo-2,3-dihydro-1H-pyrazol-4-yl]-4-(difluoromethoxy)benzamide]

The next lines start with the molecule.

Compound | EC50 (human FPR2) [nM] | EC50 (human FPR1) [nM]
COc1cc(F)c(-c2c(NC(=O)c3ccc(OC(F)F)cc3)c(=O)n(-c3cc(OC4CCOC4)cc(C)n3)n2C)c(F)c1 (centres unmarked) [Example 320, N-(5-(2,6-Difluoro-4-methoxyphenyl)-1-methyl-2-(6-methyl-4-((tetrahydrofuran-3-yl)oxy)pyridin-2-yl)-3-oxo-2,3-dihydro-1H-pyrazol-4-yl)-4-(difluoromethoxy)benzamide] | 2 | 990
COc1cc(F)c(-c2c(NC(=O)c3ccc(OC(F)F)cc3)c(=O)n(-c3nc(N4CCC(C(N)=O)C4)ccc3C(F)(F)F)n2C)c(F)c1 (centres unmarked) [Example 303, 1-{6-[3-(2,6-difluoro-4-methoxyphenyl)-4-[4-(difluoromethoxy)benzamido]-2-methyl-5-oxo-2,5-dihydro-1H-pyrazol-1-yl]-5-(trifluoromethyl)pyridin-2-yl}pyrrolidine-3-carboxamide] | 1 | > 10000
COc1cc(OC2CCOC2)nc(-n2c(=O)c(NC(=O)c3ccc(OC(F)F)cc3)c(-c3c(F)cc(OC)cc3F)n2C)c1 (centres unmarked) [Example 356, N-(5-(2,6-Difluoro-4-methoxyphenyl)-2-(4-methoxy-6-((tetrahydrofuran-3-yl)oxy)pyridin-2-yl)-1-methyl-3-oxo-2,3-dihydro-1H-pyrazol-4-yl)-4-(difluoromethoxy)benzamide] | 5 | > 10000
COc1cc(F)c(-c2c(NC(=O)c3ccc(OC(F)F)cc3)c(=O)n(-c3ccccn3)n2C)c(F)c1 [Example 44, N-[5-(2,6-difluoro-4-methoxyphenyl)-1-methyl-3-oxo-2-(pyridin-2-yl)-2,3-dihydro-1H-pyrazol-4-yl]-4-(difluoromethoxy)benzamide] | 16 | > 10000
COc1cc(OC2CCOC2)nc(-n2c(=O)c(NC(=O)c3ccc(OC(F)F)cc3)c(-c3c(F)cc(OC)cc3F)n2C)c1 (centres unmarked) [Example 355, N-(5-(2,6-Difluoro-4-methoxyphenyl)-2-(4-methoxy-6-((tetrahydrofuran-3-yl)oxy)pyridin-2-yl)-1-methyl-3-oxo-2,3-dihydro-1H-pyrazol-4-yl)-4-(difluoromethoxy)benzamide] | 4 | > 10000
COc1cc(F)c(-c2c(NC(=O)c3ccc(OC(F)(F)F)cc3)c(=O)n(-c3cccc(-n4ccc(C)n4)n3)n2C)c(F)c1 [Example 70, N-[5-(2,6-difluoro-4-methoxyphenyl)-1-methyl-2-[6-(3-methyl-1H-pyrazol-1-yl)pyridin-2-yl]-3-oxo-2,3-dihydro-1H-pyrazol-4-yl]-4-(trifluoromethoxy)benzamide] | 3 | 5
COc1cc(F)c(-c2c(NC(=O)c3ccc(OC(F)F)cc3)c(=O)n(-c3cc(C#N)ccc3C#N)n2C)c(F)c1 [Example 179, N-[2-(2,5-dicyanophenyl)-5-(2,6-difluoro-4-methoxyphenyl)-1-methyl-3-oxo-2,3-dihydro-1H-pyrazol-4-yl]-4-(difluoromethoxy)benzamide] | 23 | 300

From patent US12577206B2 (BRISTOL-MYERS SQUIBB COMPANY, priority 2020, dated 2026)
